Data on four compounds can be found in patent US20250368700A1, “NOVEL PEPTIDE FOR TREATING AN INFECTIOUS DISEASE OR CONDITION” (OMNIX MEDICAL LTD., priority 2022, published 2025).

Values after ≈ are worked out from the molar mass of the structure shown. Read-outs that look alike come from different tables or passages of the source. Where a SMILES comes first, the peptide text is derived from it. Where no end group is shown, it is not given here. [ ]: non-standard residue; d: D form.

In data set [1] the test system is K. pneumoniae strain ATCC® 43816. It counts as cell-based.
For another data set, the system named is Hsd:ICR (CD-1) mice. Put plainly: Safety of intra-nasal (IN) administration in mice (histopathology, mortality). It counts as in vivo. Set-up: key to histopathological findings grade, Spleen / histopathological findings grade, Lungs / histopathological findings grade, Kidneys / histopathological findings grade, Heart / histopathological findings grade, Liver: Grade 0—The tissue appears normal, without any changes at all; Grade 1—Minimal pathological findings; Grade 2—Mild pathological findings; Grade 3—Moderate pathological findings; Grade 4—Severe pathological findings. Particulars: 100 mg/kg IN. The procedure: Methods: Adverse effects of OMN71 on mice following intra-Nasal (IN) administration, safety was evaluated by tissue histopathology and mortality. 100 mg/kg of OMN71 in a total volume of 50 μl saline (0.9% NaCl) was administered intranasal (IN) to Hsd:ICR (CD-1) mice (20-25 g) in order to assess the presence any toxic effects. Control mice were administered with saline solution (0.9% NaCl) as vehicle. On the last time-point of each experiment (at T24h), mortality was assessed, the mice were sacrificed by IP injection of Ketamine-Xylazine and spleen, lungs, kidneys, heart and liver were collected for histopathology.
Slides of liver, heart, kidneys, lungs, and spleen were stained with Hematoxylin & Eosin (H&E) and were sent for evaluation. The H&E-stained slides were examined and pictures were taken using microscope equipped with a camera at objective magnification of ×4 and ×10.

In data set [2] the test system is K. pneumoniae strain ATCC® 43816. Put plainly: Mouse lung infection model induced by K. pneumoniae, lung bacterial burden. It is filed as in vivo. Particulars: neutropenic CD-1 female mice, 100 mg/kg intranasal two hours post-infection, 24 hours. As for the experimental part: Neutropenic CD-1 female mice were intratracheally inoculated with K. pneumoniae strain ATCC 43816 (75×10^3 CFU/mouse). Two hours post-inoculation, OMN71-treated group was administered by an intranasal injection of 100 mg/kg and the vehicle group was administered with 0.9% saline solution. Bacterial burden in the lungs was evaluated 24 hours post-infection. Control group of untreated mice n=2 (CTRL ▪), vehicle saline treated mice n=3 (vehicle ●), OMN71-treated group at 100 mg/kg n=3 (OMN71 100 mg/kg ▴).
Methods: Female CD-1 mice, weighing between 20-25 g were inoculated with K. pneumoniae bacteria to induce a lung infection. All animals were monitored during the entire period of the study and clinical signs were recorded. Briefly, eight animals were rendered neutropenic by two intraperitoneal injections of cyclophosphamide (Sigma-Aldrich, Italy) at 150 and 100 mg/kg, four and one day before the infection, respectively. […] The mice were anesthetized by IP injection of Ketamine-Xylazine at low dose and intratracheally inoculated with 50 μL of the bacterial suspension (75×10^3 CFU/mouse). Two hours post-infection (T2h), 100 mg/kg OMN71 in a total volume of 50 μl saline (0.9% NaCl) was administered intranasal. […] The mice were monitored during the entire study and scored for clinical signs of infection where no mortality or morbidity were observed.

The subject of data set [3] is Escherichia coli ATCC ® BAA-2452 (NDM-1). It is filed as cell-based. The text has this: (§1) As bacterial growth progresses, OD625 nm values raised.
Data set [4] has as its system Klebsiella pneumoniae ATCC ® BAA-2146 (NDM-1). It is filed as cell-based.
Description: as §1

Data set [5] has as its system Pseudomonas aeruginosa ATCC ® 27853 (Sens.). It is filed as cell-based.
Description: as §1

Data set [6] deals with Pseudomonas aeruginosa ATCC ® BAA-2795 (MDR). It counts as cell-based.
Description: as §1

Data set [7] deals with Escherichia coli ATCC ® 25922 (Sens.). It counts as cell-based.
Description: as §1

For data set [8], the system named is Pseudomonas aeruginosa ATCC ® BAA-2797 (MDR). It counts as cell-based.
Description: as §1

For data set [9], the system named is Escherichia coli ATCC ® BAA-3048 (MDR). It counts as cell-based.
Description: as §1

Data set [10] relates to Klebsiella pneumoniae ATCC ® 700603 (Sens.). It is filed as cell-based.
Description: as §1

The next data set has as its target Proteinase-K (ProtK) (Parengyodontium album, UniProt P06873). It counts as in vitro ADME. Particulars: 2.5 μg protein, 2 hours at 37° C. As for the experimental part:
Methods: Proteinase-K (ProtK) was used to assess the stability of OMN71 versus native OMN70 and Bovine Serum Albumin (BSA). 2.5 μg of each protein were incubated with increasing concentrations of 2.5 and 20 ng of ProtK as specified, for 2 hours at 37° C. Samples were boiled at 100° C. for five minutes and separated on 16.5% polyacrylamide gel. The gel was then stained with Coomassie Blue and excess dye was removed overnight.
Results: FIGS. 3A and 3B depict a Coomassie Blue stained gel detecting the following: FIG. 3A: Lanes 1, 2 and 3: […] of OMN70 subjected to 0/2.5/20 ng of Proteinase-K (ProtK), respectively. Lanes 4, 5 and 6: […] of OMN71 subjected to 0/2.5/20 ng of ProtK, respectively. FIG. 3B: Lanes 7, 8 and 9: […] of Bovine Serum Albumin (BSA) subjected to 0/2.5/20 ng of ProtK, respectively.

Chain of Proteinase-K (ProtK) (P06873 106-384, species assumed): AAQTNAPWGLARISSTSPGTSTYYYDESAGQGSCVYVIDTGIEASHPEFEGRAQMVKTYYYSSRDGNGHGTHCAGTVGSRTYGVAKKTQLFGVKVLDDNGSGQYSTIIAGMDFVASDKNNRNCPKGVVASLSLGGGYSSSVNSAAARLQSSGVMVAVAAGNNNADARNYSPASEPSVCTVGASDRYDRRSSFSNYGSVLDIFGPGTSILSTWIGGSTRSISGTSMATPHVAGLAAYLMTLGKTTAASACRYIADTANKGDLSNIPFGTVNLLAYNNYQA

`CC(C)C[C@@H](NC(=O)[C@H](N)Cc1ccccc1)C(=O)N[C@H](CC(N)=O)C(=O)N[C@H](C)C(=O)N[C@H](CC(C)C)C(=O)N[C@H](CCCCN)C(=O)N[C@H](CC(N)=O)C(=O)N[C@H](Cc1ccccc1)C(=O)N[C@H](C)C(=O)N[C@H](CCCCN)C(=O)N[C@@H](C(=O)N[C@H](C)C(=O)NCC(=O)N[C@H](CCCCN)C(=O)N[C@H](CCCNC(=N)N)C(=O)N[C@H](CC(C)C)C(=O)N[C@H](CCCCN)C(=O)N[C@H](CO)C(=O)N[C@H](CC(C)C)C(=O)N[C@H](CC(C)C)C(=O)N[C@H](CC(N)=O)C(N)=O)[C@H](C)O` [OMN71] (H-[dF][dL][dN][dA][dL][dK][dN][dF][dA][dK][dT][dA]G[dK][dR][dL][dK][dS][dL][dL][dN]-NH2; N-terminus assumed): the minimum inhibitory concentration (MIC) (in general, the lowest concentration found to suppress growth) in data set [1] turned out to be 4 µg/mL (≈ 1.7 µM). For the same compound, the “histopathological findings grade, Heart” value in the data set on Hsd:ICR (CD-1) mice (T24 h) was 0. Besides, in the data set with Hsd:ICR (CD-1) mice (T24 h), the “histopathological findings grade, Kidneys” value worked out at 0. In addition, the “histopathological findings grade, Liver” value in the data set on Hsd:ICR (CD-1) mice (T24 h) stood at 0. In addition, the “histopathological findings grade, Lungs” value in the data set on Hsd:ICR (CD-1) mice (T24 h) turned out to be 0. Besides, in the data set on Hsd:ICR (CD-1) mice (T24 h), the “histopathological findings grade, Spleen” value worked out at 0. The mortality result in the data set with Hsd:ICR (CD-1) mice (at T24h) is given as “No mortality”. The “mortality or other adverse effects” value in the data set on Hsd:ICR (CD-1) mice (monitored for an additional week) is recorded as “no mortality or any other adverse effects”. The “bacterial burden reduction compared to the vehicle-treated group” value in [2] is listed as approximately 1 log CFU/lungs. Besides, the MIC values is 4 µg/mL (≈ 1.7 µM) in data set [3]; 16 µg/mL (≈ 6.82 µM) in data set [4]; 16 µg/mL (≈ 6.82 µM) in [5]; 4 µg/mL (≈ 1.7 µM) in [6]; 4 µg/mL (≈ 1.7 µM) in [7]; 16 µg/mL (≈ 6.82 µM) in data set [8]. Moreover, the MIC values in [9] amounted to 4 µg/mL (≈ 1.7 µM); in data set [10], 8 µg/mL (≈ 3.41 µM).

As to `CC(C)C[C@@H](NC(=O)[C@H](N)CC(N)=O)C(=O)N[C@H](CC(C)C)C(=O)N[C@H](CO)C(=O)N[C@H](CCCCN)C(=O)N[C@H](CC(C)C)C(=O)N[C@H](CCCNC(=N)N)C(=O)N[C@H](CCCCN)C(=O)NCC(=O)N[C@H](C)C(=O)N[C@@H](C(=O)N[C@H](CCCCN)C(=O)N[C@H](C)C(=O)N[C@H](Cc1ccccc1)C(=O)N[C@H](CC(N)=O)C(=O)N[C@H](CCCCN)C(=O)N[C@H](CC(C)C)C(=O)N[C@H](C)C(=O)N[C@H](CC(N)=O)C(=O)N[C@H](CC(C)C)C(=O)N[C@H](Cc1ccccc1)C(N)=O)[C@H](C)O` [OMN72], the MIC values in data set [3] came to 32 µg/mL (≈ 13.6 µM); in [4], 32 µg/mL (≈ 13.6 µM); in [5] it was 64 µg/mL (≈ 27.3 µM); in [6] it was 16 µg/mL (≈ 6.82 µM); in data set [7] it was 32 µg/mL (≈ 13.6 µM); in data set [8] it was 64 µg/mL (≈ 27.3 µM). For the same compound, the MIC values came to 32 µg/mL (≈ 13.6 µM) in data set [9] and 16 µg/mL (≈ 6.82 µM) in [10].

Bovine Serum Albumin [BSA]: the “degradation by ProtK (gel band)” value is reported as “partially degrade” with Proteinase-K (ProtK) (2.5 ng ProtK) and “completely degrade” with Proteinase-K (ProtK) (20 ng ProtK).

For the compound “FLNALKNFAKTAGKRLKSLLN-NH2 [OMN70, Cyanophlyctin, reference compound]”, the MIC values in data set [3] came out at 8 µg/mL; in data set [4], 16 µg/mL; in [5], 16 µg/mL; in [6] it was 8 µg/mL; in [7] it was 4 µg/mL; in data set [8], 16 µg/mL. Further, the MIC values stood at 16 µg/mL in [9] and 8 µg/mL in data set [10].
